# Experimental data: patent US20090170872A1, “Compounds and Their Pharmaceutical Use” (Orchid Research Laboratories Limited, priority 2005, published 2009)
# Tests used:
# IL-6 = IL-6 production in LPS-stimulated human whole blood (ELISA); assay type: cell-based; conditions: LPS 4 hours, read-out: % IL-6 Inhibitory Activity (hPBMC)
# Procedure: This assay determines the effect of test compounds on the production of IL-6 from human whole blood. Compounds are tested for their ability to downregulate the production of IL-6 in activated whole blood. The test compounds are pre-incubated for 15 minutes at 37° C. and then stimulated with Lipopolysaccharide (Salmonella abortus equi, 1 µg/ml) for 4 hours at 37° C. in 5% CO2. The levels of IL-6 are estimated using Enzyme linked Immunosorbent assay performed in a 96 well format as per the procedure of the manufacturer. (Cayman Chemical, Ann Arbor, USA).
# TNF-α = TNF-α production in LPS-stimulated human whole blood (ELISA); assay type: cell-based; conditions: LPS 4 hours, read-out: % TNF-α Inhibitory Activity in (hPBMC)
# Procedure: This assay determines the effect of the test compounds on the production of TNF-α in human whole blood. TNF-α assay is carried out as described by Armin Hatzelmann and Christian Schudt (J Pharm Exp Ther 297, 261, 2001). Compounds are tested for their ability to inhibit the activity of TNF-α in human whole blood. The test compounds are pre-incubated for 15 minutes at 37° C. and then stimulated with Lipopolysaccharide (Salmonella abortus equi, 1 µg/ml) for 4 hours at 37° C. in 5% CO2. The levels of TNF-α are estimated using Enzyme linked Immunosorbent assay performed in a 96 well format as per the procedure of the manufacturer (Cayman Chemical, Ann Arbor, USA).
melting point [°C],SMILES,inhibition at 1 µM (IL-6) [%],inhibition at 10 µM (IL-6) [%],inhibition at 1 µM (TNF-α) [%],inhibition at 10 µM (TNF-α) [%]
231 to 233,"Cc1nccn1CC1CCc2c(c3ccccc3n2C)/C1=N/O (stereo not shown) [Example 1, (4E)-9-methyl-3-[(2-methyl-1H-imidazol-1-yl)methyl]-1,2,3,9-tetrahydro-4H-carbazol-4-one oxime]",–,–,–,–
–,"Cc1nccn1CC1CCc2c(c3ccccc3n2C)/C1=N/OCc1ccccc1 (stereo not shown) [Example 2, (4E)-9-methyl-3-[(2-methyl-1H-imidazol-1-yl)methyl]-1,2,3,9-tetrahydro-4H-carbazol-4-one O-benzyloxime]",17.2,52.7,6.87,54.3
–,"CCO/N=C1/c2c(n(C)c3ccccc23)CCC1Cn1ccnc1C (stereo not shown) [Example 3, (4E)-9-methyl-3-[(2-methyl-1H-imidazol-1-yl)methyl]-1,2,3,9-tetrahydro-4H-carbazol-4-one O-ethyloxime]",13.1,17.7,3.42,26.9
–,"Cc1nccn1CC1CCc2c(c3ccccc3n2C)/C1=N/OCC(F)(F)F (stereo not shown) [Example 4, (4E)-9-methyl-3-[(2-methyl-1H-imidazol-1-yl)methyl]-1,2,3,9-tetrahydro-4H-carbazol-4-one O-2,2,2-trifluoroethyloxime]",–,–,19.8,26.1
–,"COc1ccc(CO/N=C2/c3c(n(C)c4ccccc34)CCC2Cn2ccnc2C)cc1 (stereo not shown) [Example 5, (4E)-9-methyl-3-[(2-methyl-1H-imidazol-1-yl)methyl]-1,2,3,9-tetrahydro-4H-carbazol-4-one O-(4-methoxybenzyl)oxime]",–,–,18.4,52.4
–,"Cc1nccn1CC1CCc2c(c3ccccc3n2C)/C1=N/OCc1cccnc1 (stereo not shown) [Example 10, (4E)-9-methyl-3-[(2-methyl-1H-imidazol-1-yl)methyl]-1,2,3,9-tetrahydro-4H-carbazol-4-one O-(pyidin-3-ylmethyl)oxime]",–,–,19.9,50.5
–,"Cc1nccn1CC1CCc2c(c3ccccc3n2C)/C1=N/OCc1ccncc1 (stereo not shown) [Example 11, (4E)-9-methyl-3-[(2-methyl-1H-imidazol-1-yl)methyl]-1,2,3,9-tetrahydro-4H-carbazol-4-one O-(pyridin-4-ylmethyl)oxime]",–,–,11.7,47.5
–,"Cc1nccn1CC1CCc2c(c3ccccc3n2C)/C1=N/OCc1ccc([N+](=O)[O-])cc1 (stereo not shown) [Example 15, (4E)-9-methyl-3-[(2-methyl-1H-imidazol-1-yl)methyl]-1,2,3,9-tetrahydro-4H-carbazol-4-one O-(4-nitrobenzyl)oxime]",–,–,48.1,41.2
–,"Cc1nccn1CC1CCc2c(c3ccccc3n2C)/C1=N/Oc1ccc(C(F)(F)F)c(Cl)n1 (stereo not shown) [Example 22, (4E)-9-methyl-3-[(2-methyl-1H-imidazol-1-yl)methyl]-1,2,3,9-tetrahydro-4H-carbazol-4-one O-(-chloro-5-trifluoromethyl-pyridin-2-yl)oxime]",–,–,53.1,48
–,"CC(=O)O/N=C1/c2c(n(C)c3ccccc23)CCC1Cn1ccnc1C (stereo not shown) [Example 25, (4E)-9-methyl-3-[(2-methyl-1H-imidazol-1-yl)methyl]-1,2,3,9-tetrahydro-4H-carbazol-4-one O-acetyloxime]",22.4,12.5,–,–
148 to 150,"Cc1nccn1CC1CCc2c(c3ccccc3n2C)/C1=N/OC(=O)C(F)(F)F (stereo not shown) [Example 26, (4E)-9-methyl-3-[(2-methyl-1H-imidazol-1-yl)methyl]-1,2,3,9-tetrahydro-4H-carbazol-4-one O-trifluoroacetyloxime]",–,–,20.8,2.67
172 to 174,"Cc1nccn1CC1CCc2c(c3ccccc3n2C)/C1=N/OC(=O)c1ccnc(Cl)c1 (stereo not shown) [Example 27, (4E)-9-methyl-3-[(2-methyl-1H-imidazol-1-yl)methyl]-1,2,3,9-tetrahydro-4H-carbazol-4-one O-2-chloropyridinoyloxime]",–,–,3.51,9.77
179 to 185,"Cc1nccn1CC1CCc2c(c3ccccc3n2C)/C1=N/OC(=O)c1ccccc1 (stereo not shown) [Example 30, (4E)-9-methyl-3-[(2-methyl-1H-imidazol-1-yl)methyl]-1,2,3,9-tetrahydro-4H-carbazol-4-one O-benzoyloxime]",–,–,–,–
206 to 212,"Cc1nccn1CC1CCc2c(c3ccccc3n2C)/C1=N/OC(=O)c1ccc(Cl)cc1 (stereo not shown) [Example 31, (4E)-9-methyl-3-[(2-methyl-1H-imidazol-1-yl)methyl]-1,2,3,9-tetrahydro-4H-carbazol-4-one O-4-chloro-benzoyloxime]",–,–,10.8,28.5
172 to 175,"Cc1nccn1CC1CCc2c(c3ccccc3n2C)/C1=N/OC(=O)c1ccccc1F (stereo not shown) [Example 33, (4E)-9-methyl-3-[(2-methyl-1H-imidazol-1-yl)methyl]-1,2,3,9-tetrahydro-4H-carbazol-4-one O-2-fluorobenzoyloxime]",–,–,–,–
200 to 203,Cc1nccn1CC1CCc2c(c3ccccc3n2C)/C1=N/OC(=O)c1ccc(C(F)(F)F)cc1 (stereo not shown) [Example 34],–,–,–,–
200 to 203,"COc1ccc(C(=O)O/N=C2/c3c(n(C)c4ccccc34)CCC2Cn2ccnc2C)cc1 (stereo not shown) [Example 35, (4E)-9-methyl-3-[(2-methyl-1H-imidazol-1-yl)methyl]-1,2,3,9-tetrahydro-4H-carbazol-4-one O-4-methoxybenzoyloxime]",–,–,–,–
207 to 212,"Cc1ccc(C(=O)O/N=C2/c3c(n(C)c4ccccc34)CCC2Cn2ccnc2C)cc1 (stereo not shown) [Example 36, (4E)-9-methyl-3-[(2-methyl-1H-imidazol-1-yl)methyl]-1,2,3,9-tetrahydro-4H-carbazol-4-one O-4-methylbenzoyloxime]",–,–,8.81,18.8
192 to 200,"Cc1nccn1CC1CCc2c(c3ccccc3n2C)/C1=N/OC(=O)c1ccc(F)cc1 (stereo not shown) [Example 38, (4E)-9-methyl-3-[(2-methyl-1H-imidazol-1-yl)methyl]-1,2,3,9-tetrahydro-4H-carbazol-4-one O-4-fluorobenzoyloxime]",19.1,26,–,–
–,"Cc1nccn1CC1CCc2c(c3ccccc3n2C)/C1=N/OC(=O)c1ccc(Br)o1 (stereo not shown) [Example 45, (4E)-9-methyl-3-[(2-methyl-1H-imidazol-1-yl)methyl]-1,2,3,9-tetrahydro-4H-carbazol-4-one O-5-bromo-2-furanoyloxime]",–,–,12.3,32.1
186 to 190,"Cc1nccn1CC1CCc2c(c3ccccc3n2C)/C1=N/OC(=O)c1ccc([N+](=O)[O-])o1 (stereo not shown) [Example 47, (4E)-9-methyl-3-[(2-methyl-1H-imidazol-1-yl)methyl]-1,2,3,9-tetrahydro-4H-carbazol-4-one O-5-nitro-2-furanoyloxime]",–,–,18,26.5
165 to 170,"Cc1ccoc1C(=O)O/N=C1/c2c(n(C)c3ccccc23)CCC1Cn1ccnc1C (stereo not shown) [Example 48, (4E)-9-methyl-3-[(2-methyl-1H-imidazol-1-yl)methyl]-1,2,3,9-tetrahydro-4H-carbazol-4-one O-3-methyl-2-furanoyloxime]",–,–,20.7,22.6
177 to 180,"Cc1ccsc1C(=O)O/N=C1/c2c(n(C)c3ccccc23)CCC1Cn1ccnc1C (stereo not shown) [Example 49, (4E)-9-methyl-3-[(2-methyl-1H-imidazol-1-yl)methyl]-1,2,3,9-tetrahydro-4H-carbazol-4-one O-3-methyl-2-thiophenoyloxime]",–,–,–,–
154 to 157,"Cc1cc(C(=O)O/N=C2/c3c(n(C)c4ccccc34)CCC2Cn2ccnc2C)no1 (stereo not shown) [Example 50, (4E)-9-methyl-3-[(2-methyl-1H-imidazol-1-yl)methyl]-1,2,3,9-tetrahydro-4H-carbazol-4-one O-5-methyl-3-isoxazoloyloxime]",–,–,–,–
171 to 175,Cc1nccn1CC1CCc2c(c3ccccc3n2C)/C1=N/OC(=O)c1ccsc1 (stereo not shown) [Example 53],–,–,–,–
140 to 144,"Cc1nccn1CC1CCc2c(c3ccccc3n2C)/C1=N/OC(=O)c1ccc(Cl)s1 (stereo not shown) [Example 56, (4E)-9-methyl-3-[(2-methyl-1H-imidazol-1-yl)methyl]-1,2,3,9-tetrahydro-4H-carbazol-4-one O-5-chloro-2-thiophenoyloxime]",–,–,26.5,54.3
158 to 164,"Cc1nccn1CC1CCc2c(c3ccccc3n2C)/C1=N/OC(=O)c1ccoc1 (stereo not shown) [Example 63, (4E)-9-methyl-3-[(2-methyl-1H-imidazol-1-yl)methyl]-1,2,3,9-tetrahydro-4H-carbazol-4-one [(furan-3-yl)carbonyl]oxime]",–,–,–,–
140 to 144,"Cc1nccn1CC1CCc2c(c3ccccc3n2C)C1NO (stereo not shown) [Example 64, 4-(hydroxyamino)-9-methyl-3-[(2-methyl-1H-imidazol-1-yl)methyl]-2,3,4,9-tetrahydro-1H-carbazole]",–,–,–,–
